molecular target: T1, ATM (Homo sapiens, UniProt Q13315); test: ATM inhibition test (phosphorylation of Chk2 generated by ionizing radiation, AlphaScreen SureFire); format: cell-based; details: phosphorylated Chk2 in NCI-H460 cells, ionizing radiation 8Gy, 1 hour after test compound treatment; read-out: ATM inhibitory activity
T1 construct: detecting phosphorylation of Chk2 in a human non-small cell lung cancer cell line NCI-H460 (ATCC company); host or cells: NCI-H460 human non-small cell lung cancer cells
T1 sequence (Q13315 whole entry): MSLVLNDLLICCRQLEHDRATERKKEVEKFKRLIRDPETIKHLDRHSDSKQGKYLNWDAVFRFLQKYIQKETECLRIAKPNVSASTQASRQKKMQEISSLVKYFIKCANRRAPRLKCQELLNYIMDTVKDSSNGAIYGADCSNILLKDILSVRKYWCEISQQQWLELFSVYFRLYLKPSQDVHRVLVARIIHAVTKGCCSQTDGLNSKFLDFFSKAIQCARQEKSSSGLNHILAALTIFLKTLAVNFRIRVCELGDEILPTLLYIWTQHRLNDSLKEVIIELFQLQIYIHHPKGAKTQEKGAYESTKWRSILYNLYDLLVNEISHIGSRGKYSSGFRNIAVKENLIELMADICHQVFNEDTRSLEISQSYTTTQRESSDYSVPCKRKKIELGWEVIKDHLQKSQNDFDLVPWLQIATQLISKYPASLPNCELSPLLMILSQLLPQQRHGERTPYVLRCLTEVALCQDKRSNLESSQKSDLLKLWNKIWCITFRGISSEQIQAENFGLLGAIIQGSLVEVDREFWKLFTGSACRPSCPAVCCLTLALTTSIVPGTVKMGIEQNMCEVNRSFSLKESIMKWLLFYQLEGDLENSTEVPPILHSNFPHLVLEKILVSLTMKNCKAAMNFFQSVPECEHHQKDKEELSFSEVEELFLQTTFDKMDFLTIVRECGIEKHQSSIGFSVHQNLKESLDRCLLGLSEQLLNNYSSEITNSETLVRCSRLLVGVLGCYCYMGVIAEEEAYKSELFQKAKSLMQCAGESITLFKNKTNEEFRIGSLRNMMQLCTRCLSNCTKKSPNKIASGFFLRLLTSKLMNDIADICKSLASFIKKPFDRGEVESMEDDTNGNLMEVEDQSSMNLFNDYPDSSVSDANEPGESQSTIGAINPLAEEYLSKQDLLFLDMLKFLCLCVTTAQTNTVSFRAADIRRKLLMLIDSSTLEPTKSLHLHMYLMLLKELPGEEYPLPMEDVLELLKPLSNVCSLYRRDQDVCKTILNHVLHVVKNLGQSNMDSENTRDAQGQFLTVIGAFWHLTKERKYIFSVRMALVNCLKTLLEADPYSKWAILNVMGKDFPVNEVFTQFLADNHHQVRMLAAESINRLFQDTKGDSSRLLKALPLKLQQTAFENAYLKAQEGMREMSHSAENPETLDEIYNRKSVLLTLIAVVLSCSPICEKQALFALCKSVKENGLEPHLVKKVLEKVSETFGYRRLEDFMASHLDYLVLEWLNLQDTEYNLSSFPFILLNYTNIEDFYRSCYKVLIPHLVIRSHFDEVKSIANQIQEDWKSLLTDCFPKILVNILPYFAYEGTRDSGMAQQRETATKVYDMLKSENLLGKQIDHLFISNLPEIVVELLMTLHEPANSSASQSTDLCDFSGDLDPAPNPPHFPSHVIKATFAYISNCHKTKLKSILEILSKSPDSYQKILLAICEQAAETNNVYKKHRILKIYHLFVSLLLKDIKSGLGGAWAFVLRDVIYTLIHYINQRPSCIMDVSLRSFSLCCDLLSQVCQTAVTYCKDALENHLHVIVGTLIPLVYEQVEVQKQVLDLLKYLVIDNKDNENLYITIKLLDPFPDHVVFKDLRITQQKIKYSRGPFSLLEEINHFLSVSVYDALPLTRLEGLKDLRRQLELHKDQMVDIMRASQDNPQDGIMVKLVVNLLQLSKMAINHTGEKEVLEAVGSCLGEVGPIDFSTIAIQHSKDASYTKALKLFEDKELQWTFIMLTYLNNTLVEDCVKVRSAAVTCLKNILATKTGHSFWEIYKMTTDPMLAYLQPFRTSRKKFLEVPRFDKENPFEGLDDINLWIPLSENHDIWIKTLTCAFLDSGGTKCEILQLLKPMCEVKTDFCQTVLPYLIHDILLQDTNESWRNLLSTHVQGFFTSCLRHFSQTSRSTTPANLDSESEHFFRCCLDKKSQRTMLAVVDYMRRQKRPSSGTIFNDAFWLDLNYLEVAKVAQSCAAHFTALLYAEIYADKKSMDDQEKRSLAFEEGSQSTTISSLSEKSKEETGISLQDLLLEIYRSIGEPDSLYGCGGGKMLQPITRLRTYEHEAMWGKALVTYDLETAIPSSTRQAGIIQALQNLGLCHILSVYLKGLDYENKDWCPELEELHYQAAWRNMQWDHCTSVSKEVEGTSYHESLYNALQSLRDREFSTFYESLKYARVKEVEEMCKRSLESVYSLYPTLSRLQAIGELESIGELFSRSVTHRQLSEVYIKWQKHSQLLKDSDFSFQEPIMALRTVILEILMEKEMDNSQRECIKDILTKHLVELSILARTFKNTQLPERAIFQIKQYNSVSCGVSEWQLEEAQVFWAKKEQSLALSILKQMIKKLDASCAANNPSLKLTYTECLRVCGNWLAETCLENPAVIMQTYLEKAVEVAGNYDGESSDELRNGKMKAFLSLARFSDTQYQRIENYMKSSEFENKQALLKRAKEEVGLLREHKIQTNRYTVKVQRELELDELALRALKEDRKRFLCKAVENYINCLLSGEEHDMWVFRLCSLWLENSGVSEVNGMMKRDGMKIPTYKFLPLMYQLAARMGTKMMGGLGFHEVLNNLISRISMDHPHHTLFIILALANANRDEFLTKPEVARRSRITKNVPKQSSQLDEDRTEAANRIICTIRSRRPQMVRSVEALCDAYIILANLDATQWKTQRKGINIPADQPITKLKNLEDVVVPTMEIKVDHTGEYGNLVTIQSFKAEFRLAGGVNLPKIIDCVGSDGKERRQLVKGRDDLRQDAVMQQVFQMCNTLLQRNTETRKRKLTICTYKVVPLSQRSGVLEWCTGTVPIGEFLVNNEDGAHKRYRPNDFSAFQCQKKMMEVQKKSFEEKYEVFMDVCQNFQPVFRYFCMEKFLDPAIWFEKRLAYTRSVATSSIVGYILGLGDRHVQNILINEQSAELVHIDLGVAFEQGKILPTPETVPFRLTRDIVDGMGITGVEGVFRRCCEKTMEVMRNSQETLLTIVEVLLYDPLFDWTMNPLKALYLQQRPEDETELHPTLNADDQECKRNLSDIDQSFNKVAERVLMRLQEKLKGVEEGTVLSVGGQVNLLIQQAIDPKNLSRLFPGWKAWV
How it was run: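 NCI-H460 cells treated with compound for 1 hour, then irradiated with 8Gy and incubated 1 hour at 37° C. Phospho-Chk2 measured by AlphaScreen SureFire. Inhibition ratio calculated relative to untreated irradiated and non-irradiated wells.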

Q: With `O=c1cc(N2CCOCC2)cc(-c2cccc3c2Oc2ccc(NC4CCN(CCC5CCCCC5)CC4)cc2C3)[nH]1` [Example 2-30-5, 6-(7-((1-(2-Cyclohexylethyl)piperidin-4-yl)amino)-9H-xanthen-4-yl)-4-morpholino pyridin-2 (1H)-one] as the compound, how does the IC50 read?
A: 500 to 2000 nM

Q: Which IC50 does the source give for `O=c1cc(N2CCOCC2)cc(-c2cccc3c2Oc2ccc(NCc4cncc(-n5cncn5)c4)cc2C3)[nH]1` [Example 2-2-59, 6-(7-(((5-(1H-1,2,4-Triazol-1-yl)pyridin-3-yl)methyl)amino)-9H-xanthen-4-yl)-4-morpholino pyridin-2(1H)-one] here?
A: 100 to 500 nM

Q: How did the IC50 turn out when `O=C(Nc1ncc(CNc2ccc3c(c2)Sc2cccc(-c4cc(N5CCOCC5)cc(=O)[nH]4)c2S3)cn1)N1CCCC1` [Example 1-12-48, N-(5-(((6-(4-Morpholino-6-oxo-1,6-dihydropyridin-2-yl)thianthren-2-yl)amino)methyl)pyrimidin-2-yl)pyrrolidine-1-car-boxamide] was run?
A: 100 to 500 nM

Q: How did the IC50 turn out when `O=c1cc(N2CCOCC2)cc(-c2cccc3c2Oc2ccc(NCc4ccncc4)cc2CC3)[nH]1` [Example 2-51-3, 4-Morpholino-6-(8-((pyridin-4-ylmethyl)amino)-10,11-dihydrodibenz[b,f]oxepin-4-yl)pyridin-2(1H)-one] was run?
A: 500 to 2000 nM

Q: For `CC(CCN1CCCCC1)Nc1ccc2c(c1)Sc1cccc(-c3cc(N4CCOCC4)cc(=O)[nH]3)c1S2` (stereo not drawn) [Example 1-42-3, 4-Morpholino-6-(7-((4-(piperidin-1-yl)butan-2-yl)amino)thianthren-1-yl) pyridin-2(1H)-one], which IC50 is on record?
A: 100 to 500 nM

Q: With `Nc1ccc2c(c1)Cc1cccc(-c3cc(N4CCOCC4)cc(=O)[nH]3)c1S2` [Example 3-1, 6-(7-amino-9H-thioxanthen-4-yl)-4-morpholinopyridin-2(1H)-one] as the compound, how does the IC50 read?
A: 500 to 2000 nM

Q: With `O=c1cc(N2CCOCC2)cc(-c2cccc3c2Oc2ccc(NCc4cnc5occc5c4)cc2C3)[nH]1` [Example 2-2-44, 6-(7-((Furo[2,3-b]pyridin-5-ylmethyl)amino)-9H-xanthen-4-yl)-4-morpholino pyridin-2(1H)-one] as the compound, how does the IC50 read?
A: < 100 nM

Q: `CC(C)(C)OC(=O)N1CCC[C@H]1CNc1ccc2c(c1)Cc1cccc(-c3cc(N4CCOCC4)cc(=O)[nH]3)c1O2` [Example 2-21-3, (S)-tert-Butyl 2-(((5-(4-morpholino-6-oxo-1,6-dihydropyridin-2-yl)-9H-xanthen-2-yl)amino)methyl) pyrrolidine-1-carboxylate] was tested. Which IC50 did it give?
A: 500 to 2000 nM

Q: Which IC50 does the source give for `Cc1cncc(CNc2ccc3c(c2)Sc2cccc(-c4cc(N5CCOCC5)cc(=O)[nH]4)c2S3)n1` [Example 1-12-60, 6-(7-(((6-Methylpyrazin-2-yl)methyl)amino)thianthren-1-yl)-4-morpholino pyridin-2(1H)-one] here?
A: 100 to 500 nM

Q: How did the IC50 turn out when `CC(Nc1ccc2c(c1)Cc1cccc(-c3cc(N4CCOCC4)cc(=O)[nH]3)c1O2)c1ncc(CO)cn1` (stereo not drawn) [Example 2-14-66, 6-(7-((1-(5-(Hydroxymethyl)pyrimidin-2-yl)ethyl)amino)-9H-xanthen-4-yl)-4-morpholino pyridin-2(1H)-one] was run?
A: 500 to 2000 nM

Q: For `Cc1cnc(C(C)Nc2ccc3c(c2)Cc2cccc(-c4cc(N5CCOCC5)cc(=O)[nH]4)c2O3)cn1` (single isomer, unassigned) [Example 2-14-90-1, 6-(7-((1-(5-methylpyrazin-2-yl)ethyl)amino)-9H-xanthen-4-yl)-4-morpholinopyridin-2(1H)-one], which IC50 is on record?
A: 500 to 2000 nM

Q: For `CC(Nc1ccc2c(c1)Cc1cccc(-c3cc(N4CCOCC4)cc(=O)[nH]3)c1O2)c1cccnc1` (single isomer, unassigned) [Example 2-36-2, 4-Morpholino-6-(7-((1-(pyridin-3-yl)ethyl)amino)-9H-xanthen-4-yl)pyridin-2(1H)-one], which IC50 is on record?
A: 100 to 500 nM

Q: Which IC50 does the source give for “Ethyl 6-(((6-(4-morpholino- 6-oxo-1,6-dihydropyridin-2- yl)thianthren-2-yl)amino) methyl)picol [Example 1-12-56]” here?
A: 100 to 500 nM

Q: With `CC(C)Nc1cncc(CNc2ccc3c(c2)Cc2cccc(-c4cc(N5CCOCC5)cc(=O)[nH]4)c2O3)c1` [Example 2-2-75, 6-(7-(((5-(Isopropylamino)pyridin-3-yl)methyl)amino)-9H-xanthen-4-yl)-4-morpholino pyridin-2(1H)-one] as the compound, how does the IC50 read?
A: 100 to 500 nM

Q: With `COCC(CN1CCN(C)CC1)Nc1ccc2c(c1)Sc1cccc(-c3cc(N4CCOCC4)cc(=O)[nH]3)c1S2` (stereo not drawn) [Example 1-17-3, 6-(7-((1-Methoxy-3-(4-methylpiperazin-1-yl)propan-2-yl)amino)thianthren-1-yl)-4-morpholinopyridin-2(1H)-one] as the compound, how does the IC50 read?
A: 100 to 500 nM

Q: `O=c1cc(N2CCOCC2)cc(-c2cccc3c2Oc2ccc(NC4CCN(Cc5cncc(Cl)c5)CC4)cc2C3)[nH]1` [Example 2-28-17, 6-(7-((1-((5-Chloropyridin-3-yl)methyl)piperidin-4-yl)amino)-9H-xanthen-4-yl)-4-morpholino pyridin-2(1H)-one] was tested. Which IC50 did it give?
A: 100 to 500 nM

Q: How did the IC50 turn out when `O=c1cc(N2CCOCC2)cc(-c2cccc3c2Sc2ccc(NCCCN4CCOCC4)cc2S3)[nH]1` [Example 1-9-3, 4-Morpholino-6-(7-((3-morpholinopropyl)amino)thianthren-1-yl)pyridin-2(1H)-one] was run?
A: < 100 nM

Q: With `COCCN1CCOC(C(Nc2ccc3c(c2)Sc2cccc(-c4cc(N5CCOCC5)cc(=O)[nH]4)c2S3)c2ccc(C)cn2)C1` (single isomer, unassigned) [Example 1-56-9, 6-(7-(((4-(2-Methoxyethyl)morpholin-2-yl)(5-methylpyridin-2-yl)methyl)amino)thianthren-1-yl)-4-morpholino pyridin-2(1H)-one] as the compound, how does the IC50 read?
A: < 100 nM

Q: Which IC50 does the source give for `O=c1cc(N2CCOCC2)cc(-c2cccc3c2Oc2ccc(NCCCc4cccnc4)cc2C3)[nH]1` [Example 2-14-14, 4-Morpholino-6-(7-((3-(pyridin-3-yl)propyl)amino)-9H-xanthen-4-yl) pyridin-2(1H)-one] here?
A: 100 to 500 nM

Q: For `Cc1ccc(C(C[C@@H]2CCCN2)Nc2ccc3c(c2)Sc2cccc(-c4cc(N5CCOCC5)cc(=O)[nH]4)c2S3)nc1` (single isomer, unassigned) [Example 12-1], which IC50 is on record?
A: 100 to 500 nM

Q: How did the IC50 turn out when `COc1ncc(C(C)Nc2ccc3c(c2)Cc2cccc(-c4cc(N5CCOCC5)cc(=O)[nH]4)c2O3)cn1` (stereo not drawn) [Example 2-14-55, 6-(7-((1-(2-Methoxypyrimidin-5-yl)ethyl)amino)-9H-xanthen-4-yl)-4-morpholino pyridin-2 (1H)-one] was run?
A: 100 to 500 nM

Q: For `COc1nccc(C(C)Nc2ccc3c(c2)Cc2cccc(-c4cc(N5CCOCC5)cc(=O)[nH]4)c2O3)n1` (stereo not drawn) [Example 2-14-63, 6-(7-((1-(2-Methoxypyrimidin-4-yl)ethyl)amino)-9H-xanthen-4-yl)-4-morpholino pyridin-2(1H)-one], which IC50 is on record?
A: 100 to 500 nM

Q: `COc1ncccc1CNc1ccc2c(c1)Cc1cccc(-c3cc(N4CCOCC4)cc(=O)[nH]3)c1O2` [Example 2-13-12, 6-(7-(((2-Methoxypyridin-3-yl)methyl)amino)-9H-xanthen-4-yl)-4-morpholino pyridin-2(1H)-one] was tested. Which IC50 did it give?
A: 100 to 500 nM

Q: How did the IC50 turn out when `O=c1cc(N2CCOCC2)cc(-c2cccc3c2Oc2ccc(NCc4ccoc4)cc2C3)[nH]1` [Example 2-14-34, 6-(7-((Furan-3-ylmethyl)amino)-9H-xanthen-4-yl)-4-morpholino pyridin-2(1H)-one] was run?
A: 100 to 500 nM

Q: Which IC50 does the source give for `O=c1cc(N2CCOCC2)cc(-c2cccc3c2Sc2ccc(NCc4cnccn4)cc2S3)[nH]1` [Example 1-12-42, 4-Morpholino-6-(7-((pyrazin-2-ylmethyl)amino)thianthren-1-yl) pyridin-2(1H)-one] here?
A: 100 to 500 nM

Q: Which IC50 does the source give for `COc1cccnc1CNc1ccc2c(c1)Cc1cccc(-c3cc(N4CCOCC4)cc(=O)[nH]3)c1O2` [Example 2-14-8, 6-(7-(((3-Methoxypyridin-2-yl)methyl)amino)-9H-xanthen-4-yl)-4-morpholino pyridin-2(1H)-one] here?
A: 100 to 500 nM

Q: With `O=c1cc(N2CCOCC2)cc(-c2cccc3c2Oc2ccc(NC4CCN(Cc5cncnc5)CC4)cc2C3)[nH]1` [Example 2-28-4, 4-Morpholino-6-(7-((1-(pyrimidin-5-ylmethyl)piperidin-4-yl)amino)-9H-xanthen-4-yl)pyridin-2 (1H)-one] as the compound, how does the IC50 read?
A: 100 to 500 nM

Q: How did the IC50 turn out when `Cc1nccc(CNc2ccc3c(c2)Sc2cccc(-c4cc(N5CCOCC5)cc(=O)[nH]4)c2S3)n1` [Example 1-12-39, 6-(7-(((2-Methylpyrimidin-4-yl)methyl)amino)thianthren-1-yl)-4-morpholino pyridin-2 (1H)-one] was run?
A: 500 to 2000 nM

Q: `CC(C)(O)CN1CCC(Nc2ccc3c(c2)Sc2cccc(-c4cc(N5CCOCC5)cc(=O)[nH]4)c2S3)CC1` [Example 1-29-1, 6-(7-((1-(2-hydroxy-2-methylpropyl)piperidin-4-yl)amino)thianthren-1-yl)-4-morpholinopyridin-2(1H)-one] was tested. Which IC50 did it give?
A: 100 to 500 nM

Q: With `N#Cc1ccc(CNc2ccc3c(c2)Cc2ccnc(-c4cc(N5CCOCC5)cc(=O)[nH]4)c2O3)s1` [Example 2-41-17, 5-(((1-(4-Morpholino-6-oxo-1,6-dihydropyridin-2-yl)-5H-chromeno[2,3-c]pyridin-7-yl)amino)methyl)thiophene-2-carbonitrile] as the compound, how does the IC50 read?
A: 100 to 500 nM

Q: `Cc1cnc(C(COCCN(C)C)Nc2ccc3c(c2)Sc2cccc(-c4cc(N5CCOCC5)cc(=O)[nH]4)c2S3)nc1` (stereo not drawn) [Example 1-12-104, 6-(7-((2-(2-(Dimethylamino)ethoxy)-1-(5-methylpyrimidin-2-yl)ethyl)amino)thianthren-1-yl)-4-morpholino pyridin-2(1H)-one] was tested. Which IC50 did it give?
A: 100 to 500 nM

Q: Which IC50 does the source give for `Cc1cnc(C(CCN2CCC2)Nc2ccc3c(c2)Sc2cccc(-c4cc(N5CCOCC5)cc(=O)[nH]4)c2S3)cn1` (single isomer, unassigned) [Example 1-51-11, 6-(7-((3-(Azetidin-1-yl)-1-(5-methylpyrazin-2-yl)propyl)amino)thianthren-1-yl)-4-morpholino pyridin-2(1H)-one] here?
A: < 100 nM

Q: For `O=c1cc(N2CCOCC2)cc(-c2cccc3c2Oc2ccc(NC4CCCN(CCc5ccccc5)C4)cc2S3)[nH]1` (stereo not drawn) [Example 4-6-3], which IC50 is on record?
A: 100 to 500 nM
